In series [1] the target is T1, Nuclear receptor subfamily 1 group I member 3 (Mus musculus, UniProt O35627).
T1 sequence (O35627 whole entry): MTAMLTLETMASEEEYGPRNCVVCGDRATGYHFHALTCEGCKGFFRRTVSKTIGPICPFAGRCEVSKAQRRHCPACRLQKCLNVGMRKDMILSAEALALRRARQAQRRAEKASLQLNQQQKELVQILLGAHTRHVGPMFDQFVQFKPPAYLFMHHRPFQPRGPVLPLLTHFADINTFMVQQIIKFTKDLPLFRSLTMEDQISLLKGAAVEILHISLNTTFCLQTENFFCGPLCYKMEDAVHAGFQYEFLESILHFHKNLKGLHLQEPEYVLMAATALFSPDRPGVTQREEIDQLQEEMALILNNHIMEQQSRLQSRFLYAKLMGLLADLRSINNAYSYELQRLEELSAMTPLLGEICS
Description: Constitutive androstane receptor agonist.

The target in series [2] is T2, Cytochrome P450 2C8 (Homo sapiens, UniProt P10632).
T2 sequence (P10632 whole entry): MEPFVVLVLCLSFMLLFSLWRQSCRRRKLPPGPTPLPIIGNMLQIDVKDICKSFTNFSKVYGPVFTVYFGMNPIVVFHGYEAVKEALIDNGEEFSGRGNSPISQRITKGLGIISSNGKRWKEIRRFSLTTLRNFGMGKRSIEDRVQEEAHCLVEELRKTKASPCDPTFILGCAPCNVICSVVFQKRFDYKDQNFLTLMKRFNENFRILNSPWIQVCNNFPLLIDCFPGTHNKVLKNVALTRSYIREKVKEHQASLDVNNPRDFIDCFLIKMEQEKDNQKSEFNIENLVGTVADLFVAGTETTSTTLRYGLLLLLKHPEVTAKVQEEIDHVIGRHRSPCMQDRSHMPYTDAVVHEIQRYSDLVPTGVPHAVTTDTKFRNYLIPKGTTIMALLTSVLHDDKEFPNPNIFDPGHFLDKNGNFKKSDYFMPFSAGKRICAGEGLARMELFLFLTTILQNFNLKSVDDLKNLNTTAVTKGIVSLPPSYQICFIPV
Description: Clinically relevant substrates of human liver microsomal P450 enzymes, isoform CYP2C8. It counts as ADME. The conditions noted are these: microsomes.

Series [3] has as its target Microsomal glutathione S-transferase 2 (Homo sapiens, UniProt Q99735). Description: Substrates for human microsomal glutathione transferase MGST2. It is filed as ADME.
Series [4] has as its target T3, UDP-glucuronosyltransferase 2B17 (Homo sapiens, UniProt O75795).
T3 sequence (O75795 whole entry): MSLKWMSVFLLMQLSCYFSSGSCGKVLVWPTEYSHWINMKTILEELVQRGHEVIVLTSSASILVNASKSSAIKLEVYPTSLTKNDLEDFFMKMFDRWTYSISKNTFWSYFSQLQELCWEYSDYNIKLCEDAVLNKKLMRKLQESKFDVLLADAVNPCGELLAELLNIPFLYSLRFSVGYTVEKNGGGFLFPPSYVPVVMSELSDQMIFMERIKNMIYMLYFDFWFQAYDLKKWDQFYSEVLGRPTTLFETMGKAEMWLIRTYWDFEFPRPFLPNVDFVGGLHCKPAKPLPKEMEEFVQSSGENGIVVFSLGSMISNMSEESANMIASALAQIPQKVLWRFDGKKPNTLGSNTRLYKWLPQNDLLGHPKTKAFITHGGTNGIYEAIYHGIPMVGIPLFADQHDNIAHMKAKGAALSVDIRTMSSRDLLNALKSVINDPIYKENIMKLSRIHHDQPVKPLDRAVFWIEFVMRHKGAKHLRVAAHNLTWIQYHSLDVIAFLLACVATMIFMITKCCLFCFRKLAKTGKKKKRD
Description: Substrate of human UDP-glucuronosyltransferase UGT2B17. It counts as ADME.

Series [5] deals with T4, Maleylacetoacetate isomerase (Homo sapiens, UniProt O43708).
T4 sequence (O43708 whole entry): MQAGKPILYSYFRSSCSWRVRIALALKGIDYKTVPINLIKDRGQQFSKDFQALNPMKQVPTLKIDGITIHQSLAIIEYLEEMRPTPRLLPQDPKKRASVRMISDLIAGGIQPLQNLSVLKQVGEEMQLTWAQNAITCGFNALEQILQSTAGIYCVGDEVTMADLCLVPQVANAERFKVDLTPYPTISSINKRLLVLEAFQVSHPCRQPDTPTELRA
Description: Substrates for human cytosolic glutathione transferase GSTZ1. It counts as ADME.

In series [6] the target is T5, Glutathione S-transferase kappa 1 (Homo sapiens, UniProt Q9Y2Q3).
T5 sequence (Q9Y2Q3 whole entry): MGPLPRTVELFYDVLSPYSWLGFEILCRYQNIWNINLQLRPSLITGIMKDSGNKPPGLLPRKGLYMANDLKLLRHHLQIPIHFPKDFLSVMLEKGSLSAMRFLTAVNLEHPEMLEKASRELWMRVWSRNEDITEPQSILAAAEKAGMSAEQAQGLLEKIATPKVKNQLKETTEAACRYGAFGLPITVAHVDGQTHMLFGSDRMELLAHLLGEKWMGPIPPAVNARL
Description: Substrates for human mitochondrial glutathione transferase GSTK1. It is filed as ADME.

The target in series [7] is T2, Cytochrome P450 2C8. Description: Clinically relevant inhibitors of human liver microsomal P450 enzymes, isoform CYP2C8. It counts as ADME. The conditions noted are these: microsomes.
The target of series [8] is T6, UDP-glucuronosyltransferase 1A9 (Homo sapiens, UniProt O60656).
T6 sequence (O60656 whole entry): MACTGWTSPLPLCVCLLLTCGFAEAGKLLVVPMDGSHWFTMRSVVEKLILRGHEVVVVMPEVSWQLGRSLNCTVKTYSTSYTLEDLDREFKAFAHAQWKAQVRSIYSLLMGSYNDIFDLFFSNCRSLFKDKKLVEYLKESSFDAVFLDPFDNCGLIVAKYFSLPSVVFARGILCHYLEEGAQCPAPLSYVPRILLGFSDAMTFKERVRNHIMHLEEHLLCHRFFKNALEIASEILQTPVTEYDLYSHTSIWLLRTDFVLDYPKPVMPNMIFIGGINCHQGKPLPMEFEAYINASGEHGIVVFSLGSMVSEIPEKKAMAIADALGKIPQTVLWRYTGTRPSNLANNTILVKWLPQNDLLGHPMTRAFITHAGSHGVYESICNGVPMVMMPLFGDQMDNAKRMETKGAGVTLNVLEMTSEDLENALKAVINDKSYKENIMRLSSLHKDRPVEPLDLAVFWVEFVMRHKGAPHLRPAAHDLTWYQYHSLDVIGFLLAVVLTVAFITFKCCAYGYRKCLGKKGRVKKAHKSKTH
Description: Substrate of human UDP-glucuronosyltransferase UGT1A9. It counts as ADME.

Another series deals with T7, Cytochrome P450 2A6 (Homo sapiens, UniProt P11509).
T7 sequence (P11509 whole entry): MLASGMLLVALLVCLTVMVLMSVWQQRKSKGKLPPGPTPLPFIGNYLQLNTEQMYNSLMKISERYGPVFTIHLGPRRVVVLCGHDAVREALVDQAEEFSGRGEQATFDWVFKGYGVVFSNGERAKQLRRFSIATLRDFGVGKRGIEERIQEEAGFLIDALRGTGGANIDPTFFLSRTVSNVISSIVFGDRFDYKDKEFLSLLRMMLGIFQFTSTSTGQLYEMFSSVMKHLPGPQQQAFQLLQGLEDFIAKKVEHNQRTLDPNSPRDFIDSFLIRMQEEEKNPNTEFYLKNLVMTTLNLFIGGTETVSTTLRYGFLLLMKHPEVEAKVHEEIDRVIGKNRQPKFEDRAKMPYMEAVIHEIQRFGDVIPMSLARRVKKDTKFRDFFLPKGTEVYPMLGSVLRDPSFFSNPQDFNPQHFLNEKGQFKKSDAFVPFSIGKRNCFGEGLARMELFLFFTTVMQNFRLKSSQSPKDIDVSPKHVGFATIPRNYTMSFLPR
Description: Clinically relevant inhibitors of human liver microsomal P450 enzymes, isoform CYP2A6. To be noted: microsomes. It counts as ADME.

A further series has as its target Cytochrome P450 2E1 (Homo sapiens, UniProt P05181). Description: Clinically relevant substrates of human liver microsomal P450 enzymes, isoform CYP2E1. The conditions noted are these: microsomes. It counts as ADME.
Series [9] deals with T8, Microsomal glutathione S-transferase 1 (Homo sapiens, UniProt P10620).
T8 sequence (P10620 whole entry): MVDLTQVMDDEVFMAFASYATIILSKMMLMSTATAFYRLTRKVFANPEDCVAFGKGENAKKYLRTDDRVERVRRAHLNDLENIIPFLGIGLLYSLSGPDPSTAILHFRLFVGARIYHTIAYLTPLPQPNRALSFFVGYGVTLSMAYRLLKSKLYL
Description: Substrates for human microsomal glutathione transferase MGST1. It is filed as ADME.

For series [10], the target named is T9, Glutathione S-transferase A4 (Homo sapiens, UniProt O15217).
T9 sequence (O15217 whole entry): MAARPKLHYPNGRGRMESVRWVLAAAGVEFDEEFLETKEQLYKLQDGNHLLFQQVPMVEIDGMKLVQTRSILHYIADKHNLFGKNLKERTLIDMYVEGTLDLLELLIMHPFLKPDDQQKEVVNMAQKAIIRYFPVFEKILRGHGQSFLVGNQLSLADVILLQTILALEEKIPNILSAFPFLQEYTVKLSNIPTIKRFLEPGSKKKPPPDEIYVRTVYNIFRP
Description: Substrates for human cytosolic glutathione transferase GSTA4. It is filed as ADME.

Series [11] concerns the target T10, Glutathione S-transferase Mu 2 (Homo sapiens, UniProt P28161).
T10 sequence (P28161 whole entry): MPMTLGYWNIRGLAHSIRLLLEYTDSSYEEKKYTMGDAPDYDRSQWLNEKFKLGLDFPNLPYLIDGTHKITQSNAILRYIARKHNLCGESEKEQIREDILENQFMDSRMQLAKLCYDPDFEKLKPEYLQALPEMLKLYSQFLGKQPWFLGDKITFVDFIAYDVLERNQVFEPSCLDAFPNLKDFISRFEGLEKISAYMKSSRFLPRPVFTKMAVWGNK
Description: Substrates for human cytosolic glutathione transferase GSTM2. It is filed as ADME.

Series [12] concerns the target Glutathione S-transferase P (Homo sapiens, UniProt P09211). Description: Substrates for human cytosolic glutathione transferase GSTP1. It counts as ADME.
Series [13] has as its target T11, Glutathione S-transferase A2 (Homo sapiens, UniProt P09210).
T11 sequence (P09210 whole entry): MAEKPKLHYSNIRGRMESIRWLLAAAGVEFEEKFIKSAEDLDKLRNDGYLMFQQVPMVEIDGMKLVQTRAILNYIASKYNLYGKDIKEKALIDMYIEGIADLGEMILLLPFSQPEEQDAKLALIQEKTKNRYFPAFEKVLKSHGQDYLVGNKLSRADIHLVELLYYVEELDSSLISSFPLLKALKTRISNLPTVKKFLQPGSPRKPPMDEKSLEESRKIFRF
Description: Substrates for human cytosolic glutathione transferase GSTA2. It counts as ADME.

Molecules are shown by their SMILES.

Cytochrome P450 2E1, sequence (P05181 whole entry, canonical isoform): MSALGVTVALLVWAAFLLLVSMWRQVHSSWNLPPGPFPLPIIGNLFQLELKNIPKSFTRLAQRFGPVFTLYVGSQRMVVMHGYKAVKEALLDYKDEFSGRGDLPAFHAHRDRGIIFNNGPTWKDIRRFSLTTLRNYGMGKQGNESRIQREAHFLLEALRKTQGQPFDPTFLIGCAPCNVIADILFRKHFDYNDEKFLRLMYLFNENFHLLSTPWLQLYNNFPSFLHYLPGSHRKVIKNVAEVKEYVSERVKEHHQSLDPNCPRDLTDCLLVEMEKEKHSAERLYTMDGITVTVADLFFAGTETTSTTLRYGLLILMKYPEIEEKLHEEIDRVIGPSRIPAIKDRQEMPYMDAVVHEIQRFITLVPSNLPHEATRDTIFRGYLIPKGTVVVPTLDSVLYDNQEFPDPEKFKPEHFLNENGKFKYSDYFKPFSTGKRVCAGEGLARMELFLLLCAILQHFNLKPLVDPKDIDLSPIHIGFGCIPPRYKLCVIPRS
Glutathione S-transferase P, sequence (P09211 whole entry): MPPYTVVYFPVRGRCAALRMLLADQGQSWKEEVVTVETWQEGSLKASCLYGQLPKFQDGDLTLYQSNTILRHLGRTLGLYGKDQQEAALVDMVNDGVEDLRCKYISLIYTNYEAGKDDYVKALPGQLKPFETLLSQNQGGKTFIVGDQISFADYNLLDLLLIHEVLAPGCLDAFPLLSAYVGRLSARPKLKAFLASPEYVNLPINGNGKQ
Microsomal glutathione S-transferase 2, sequence (Q99735 whole entry): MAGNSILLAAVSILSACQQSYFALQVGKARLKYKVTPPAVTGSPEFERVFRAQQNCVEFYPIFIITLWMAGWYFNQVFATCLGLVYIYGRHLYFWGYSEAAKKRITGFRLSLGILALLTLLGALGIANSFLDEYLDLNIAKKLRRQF

Regarding `Clc1ccccc1C(c1ccccc1)(c1ccccc1)n1ccnc1` [CLOTRIMAZOLE], the Activity entry in series [1] is reported as “agonist”. In the case of `CC(=O)O[C@H]1C(=O)[C@@]2(C)[C@H]([C@H](OC(=O)c3ccccc3)[C@]3(O)C[C@H](OC(=O)[C@H](O)[C@@H](NC(=O)c4ccccc4)c4ccccc4)C(C)=C1C3(C)C)[C@]1(OC(C)=O)CO[C@@H]1C[C@@H]2O` [PACLITAXEL], the Activity entry at Cytochrome P450 2C8 [2] is “Substrate”. With `CCCCC/C=C\C/C=C\C/C=C\C=C\[C@H](CCCC(=O)O)OO`, in series [3], the Activity entry is recorded as “Substrate”. As for `O=c1c(O)c(-c2ccccc2)oc2cc(O)cc(O)c12` [GALANGIN], the Activity entry in [4] is on record as “Substrate”.

As for `O=C(O)/C=C\C(=O)CC(=O)CC(=O)O` [MALEYLACETOACETATE], the Activity entry in [5] is listed as “Substrate”.

On to `O=C(O)C(Cl)Cl` [DICHLOROACETIC ACID], for which the Activity result in [5] is recorded as “Substrate”. Consider `CCCCC/C=C\C/C=C\C/C=C\C=C\CCCCC(=O)O`, for which the Activity result in series [6] is “Substrate”.

Turning to `C=CCc1ccc(O)c(OC)c1` [EUGENOL], the Activity entry in series [4] is “Substrate”. With `COCc1c(C(C)C)nc(C(C)C)c(/C=C/[C@@H](O)C[C@@H](O)CC(=O)O)c1-c1ccc(F)cc1` [CERIVASTATIN], the Activity result on Cytochrome P450 2C8 [2] is “Substrate”. As to `CN(CCOc1ccc(CC2SC(=O)NC2=O)cc1)c1ccccn1` (configuration not stated) [ROSIGLITAZONE], the Activity result on Cytochrome P450 2C8 [2] is on record as “Substrate”; at Cytochrome P450 2C8 [7], “Inhibitor”. In the case of `CCCCC[C@@H](/C=C/C=C\C/C=C\C/C=C\CCCC(=O)O)OO`, in [6], the Activity result is “Substrate”. Regarding `COc1cc2ccc(=O)oc2cc1O` [SCOPOLETIN], the Activity result in series [8] and in series [4] was “Substrate” throughout. Regarding `O=C(O)CF` [FLUOROACETATE], in series [5], the Activity entry is on record as “Substrate”. As to `N[C@@H]1C[C@H]1c1ccccc1.N[C@H]1C[C@@H]1c1ccccc1` [TRANYLCYPROMINE], the Activity result on Cytochrome P450 2A6 is on record as “Inhibitor”.

`CCOc1cc(CC(=O)N[C@@H](CC(C)C)c2ccccc2N2CCCCC2)ccc1C(=O)O` [REPAGLINIDE]: the Activity result on Cytochrome P450 2C8 [2] is given as “Substrate”. As for `CCCCCCCCCCCC(=O)O` [DODECANOATE], on Cytochrome P450 2E1, the Activity entry is “Substrate”.

Consider `CC[C@@H]1C(=O)OC[C@@H]1Cc1cncn1C` [PILOCARPINE], for which, on Cytochrome P450 2A6, the Activity entry is on record as “Inhibitor”. For the compound `ClC(Cl)=C(Cl)C(Cl)=C(Cl)Cl` [HEXACHLOROBUTADIENE], the Activity result in [9] is on record as “Substrate”.

Consider `NCCc1c[nH]c2ccccc12` [TRYPTAMINE], for which the Activity entry at Cytochrome P450 2A6 is reported as “Inhibitor”. On to `C/C=C/C(=O)OCC1=CCCCC1=O`, for which the Activity entry in series [10], in series [11] and in series [12] was “Substrate” each time.

On to `O=[N+]([O-])c1ccc(Cl)c2nonc12`, for which, in series [13], the Activity result is “Substrate”. With `CC(Cl)C(=O)O` (configuration not stated), in series [5], the Activity entry is listed as “Substrate”.

With `Nc1ccccc1` [ANILINE], the Activity result at Cytochrome P450 2E1 is given as “Substrate”.

The values above are taken from ChEMBL document CHEMBL1743201, “Casarett and Doull's Toxicology The Basic Science of Poisons, 7th edition” (2008).
